Measured values from the CATMoS acute toxicity set (Mansouri et al. 2021).
Where a SMILES comes first, the peptide text is derived from it. [ ]: non-standard residue; d: D form. The star is where a group is joined. Sta = CC(C)C[C@H](N)[C@@H](O)CC(=O)O; Isovaleryl = CC(C)CC(=O)*

Assay: GHS categories as the set defines them, by LD50: 1 up to 5, 2 up to 50, 3 up to 300, 4 up to 2000, 5 above 2000 mg/kg
Settings: rat; in vivo; po

| SMILES | GHS category |
| --- | --- |
| CCCCCCCCCCCCCCC | 5 |
| CC1=CCC(C=CC(C)C(C)O)C1(C)C (configuration not stated) | 4 |
| C=C(C)C(=O)NC(C)C | 5 |
| C1C[C@@H]2[C@H]3CC[C@H](C3)[C@@H]2C1 | 5 |
| CCCCC(CC)COCC(O)COc1ccc(-c2nc(-c3ccc(C)cc3C)nc(-c3ccc(C)cc3C)n2)c(O)c1 (configuration not stated) | 5 |
| CCCCNC(=O)CC[C@H](NC(=O)C(CC)CCCC)C(=O)NCCCC (some centres not stated) | 5 |
| CCCOc1ccc(Cl)c2c(=O)c3ccccc3sc12 | 5 |
| O=S(=O)(O)c1cc(O)ccc1O | 5 |
| CCCCCCCCCCCCCCCNP1(=S)OCc2cc([N+](=O)[O-])ccc2O1 (configuration not stated) | 3 |
| CC(=O)OC1C=CC(C)=CCC(O)C=CC(C)=CC(NC(=O)C(C)=O)C2(C)C(=O)OC(C1)C(C)C2=O (configuration not stated) | 5 |
| Cn1nnnc1SCCCC(=O)NC1CCCCC1 | 4 |
| CN1C(=O)CCc2c(OCCCN3CCC(Cc4ccccc4)CC3)cccc21 | 4 |
| C[C@H]1CO[C@@](Cn2cncn2)(c2cc3ccccc3o2)O1 | 4 |
| COc1nn(-c2cccc(C(F)(F)F)c2)c2ncccc12 | 4 |
| O=C1CC(N2C(=O)c3ccccc3C2=O)CC(=O)N1 | 5 |
| CC(C)=CCC/C(C)=C/COC=O | 5 |
| C[C@@H]1O[C@@H]1P(=O)(O)O | 5 |
| COc1cc([N+](=O)[O-])c(OC)cc1Cl | 5 |
| CCN(CC)CCC1=NC(=C2C=CC(=O)C=C2)NO1 | 5 |

| SMILES | GHS category |
| --- | --- |
| c1ccc2c(c1)CCc1ccccc1N2 | 5 |
| O=C(O)CN(CCN(CC(=O)O)CC(=O)O)CCN(CC(=O)O)CC(=O)O (racemic) | 5 |
| O=C(O)[C@H](CO)Nc1ccc([N+](=O)[O-])cc1 | 5 |
| Clc1cc(Cl)c2oc(C3(Cn4cncn4)OCCCO3)cc2c1 | 4 |
| CC=Cc1ccc(OCCCCC)c(OC)c1 | 5 |
| CN(C)[C@@H]1C(O)=C(C(N)=O)C(=O)[C@@]2(O)C(O)=C3C(=O)c4c(O)ccc(Cl)c4[C@@H](O)[C@H]3C[C@@H]12 | 5 |
| COCC1=C(C(=O)OC(C)OC(=O)OC(C)C)N2C(=O)[C@@H](NC(=O)/C(=N\OC)c3csc(N)n3)[C@H]2SC1 (some centres not stated) | 5 |
| COc1ccc2c(c1)CCN(c1ccccc1)C2c1cccc(Cl)c1 (configuration not stated) | 4 |
| CC(C)c1cc(C(C)C)c(N=C=O)c(C(C)C)c1N=C=O | 5 |
| CN1CCN(C(=S)SSC(=S)N2CCN(C)CC2)CC1 | 5 |
| CCCCl | 5 |
| Cc1nc(N)sc1C(=O)NCc1ccccc1 | 4 |
| CCCC(=O)N(C)C(=O)Oc1cccc2c1OC(C)(C)O2 | 4 |
| CC(C)COC(=O)OCN1C(=O)CN(CCN2CC(=O)N(COC(=O)OCC(C)C)C(=O)C2)CC1=O | 5 |
| CC1CC(OC(=O)c2ccccc2O)CC(C)(C)C1 (configuration not stated) | 5 |
| O=C(COCCOCCOCC(=O)Nc1c(I)cc(I)c(C(=O)O)c1I)Nc1c(I)cc(I)c(C(=O)O)c1I | 5 |
| COc1cccc(N(C)C(=S)Oc2cccc(C(C)(C)C)c2)n1 | 5 |
| CCCCC1(CC)COC(Cn2cncn2)(c2cc3ccccc3o2)OC1 (configuration not stated) | 4 |
| CC[C@@]12C=C(C(=O)OC3OC(=O)c4ccccc43)n3c4c(c5ccccc53)CCN(CCC1)[C@H]42 (some centres not stated) | 5 |

| SMILES | GHS category |
| --- | --- |
| CC(C)CC(=O)N[C@H](C(=O)N[C@H](C(=O)N[C@@H](CC(C)C)[C@@H](O)CC(=O)N[C@@H](C)C(=O)N[C@@H](CC(C)C)[C@@H](O)CC(=O)O)C(C)C)C(C)C (Isovaleryl-VV[Sta]A[Sta]-OH) | 5 |
| COc1cc(Cl)c(OC)cc1Cl | 5 |
| CCNc1nc(Nc2ccccc2)nc(Nc2ccc(C=Cc3ccc(Nc4nc(NCC)nc(Nc5ccccc5)n4)cc3S(=O)(=O)O)c(S(=O)(=O)O)c2)n1 | 5 |
| CCOC(=O)COc1ccc2c(=O)cc(-c3ccccc3)oc2c1 | 5 |
| CC1CCN(c2nc3cc(Cl)ccc3o2)CCN1 (configuration not stated) | 4 |
| CC(F)(Cl)Cl | 5 |
| C[C@@H]1CN2CC(=O)Nc3ccc(Cl)cc3[C@]2(c2ccccc2)O1 | 5 |
| Cc1ccc2nc(-c3ccc(N)cc3)sc2c1S(=O)(=O)O | 5 |
| [C] | 5 |
| Cc1ccc(OC(=O)Cc2ccccc2)cc1 | 5 |
| CC(C)C[C@H](NC(=O)CNC(=O)[C@H](Cc1ccc(O)cc1)NC(=O)[C@H](CO)NC(=O)[C@H](Cc1c[nH]c2ccccc12)NC(=O)[C@H](Cc1cnc[nH]1)NC(=O)[C@@H]1CCC(=O)N1)C(=O)N[C@@H](CCCN=C(N)N)C(=O)N1CCC[C@H]1C(=O)NCC(N)=O | 5 |
| CCc1ccccc1OP(=O)(Oc1ccccc1CC)Oc1ccccc1CC | 5 |
| COc1ccc(N(CCCC(=O)O)C(=O)c2ccc(Cl)cc2)cc1 | 5 |
| CC(C)OP(O)(=S)OC(C)C | 4 |
| CSC(=O)c1c(C(F)F)nc(C(F)(F)F)c(C(=O)SC)c1CC(C)C | 5 |
| CC(=O)NCCCOc1ccc(C(=O)N2CCC(N3C(=O)CCc4ccccc43)CC2)cc1 | 5 |
| CC(C)N1C2CCC1CC(OC(=O)C(CO)c1ccccc1)C2 (configuration not stated) | 4 |
| NC(=O)Oc1ccccc1C(=O)Oc1ccc(Cl)cc1Cl | 5 |
| Cn1nnnc1SCCCC(=O)NCc1ccco1 | 4 |
